Laboratory results published in US20180000725A1, “ORALLY-DISSOLVING FILMS FOR DRUG DELIVERY THROUGH THE ORAL CAVITY” (The Chinese University of Hong Kong, priority 2016, published 2018).
Like-named read-outs stand apart in the source and are kept apart here.

Experiments:
[1] = In vivo pharmacokinetic study of ropinirole / ROP-ODF; settings: New Zealand Albino, rabbit, po, 1.5 mg/kg
Protocol: (§1) New Zealand Albino rabbits (3.0-4.5 kg) were used in this study. The rabbits were kept at a 12/12 hour light/dark cycle with unlimited food and water supply. […] The rabbits were lightly anesthetized by an intramuscular injection of ketamine and xylazine immediately before dosing. In order to compensate for reduced saliva secretion due to anesthesia, the mouths of the rabbits were wetted with a small amount of distilled water (about 1 mL) before sublingual or buccal administration of the orally dissolving films.
(§2) Blood samples were collected periodically at pre-determined time points for 6 hours.
(§3) The pharmacokinetic studies were conducted by three different routes (i.e. oral, sublingual, and buccal administration), and the data were analyzed non-compartmentally by using WinNonlin (Certara USA, Inc., Princeton, N.J., USA).

[2] = ropinirole, cited from earlier work
in vivo = settings: New Zealand Albino, rabbit, po, 1.5 mg/kg
Protocol: as §1, §2, §3

[3] = cited from earlier work

Structure (SMILES): CCCN(CCC)CCc1cccc2c1CC(=O)N2 [ropinirole, Ropinirole]
- Tmax [1]: 2.38 h
- Tmax ([2]; after oral administration): ~1.5 h
- oral dose excreted unchanged ([2]; oral): 10%
- AUC(0-inf) (in vivo): 90.5 ng·h/mL
- AUC(0-t) (in vivo): 65.5 ng·h/mL
- Cmax (in vivo): 29.9 ± 16.2 ng/mL
- half-life (in vivo): 2.893 ± 0.0183 h
- protein binding in the plasma [3]: 10-39%
